# Source: patent US20220184071A1, “GEPOTIDACIN FOR USE IN THE TREATMENT OF BACTERIAL URINARY TRACT INFECTIONS” (GlaxoSmithKline Intellectual Property Development Limited, priority 2019, published 2022)
# Read-outs that look alike come from different tables or passages of the source.
# What was measured:
# [1] = tested on: Staphylococcus epidermidis; assay: MIC by CLSI broth microdilution in CAMHB and urine, Example 5 Method 2; assay type: cell-based; settings: for Mean MIC: n = 4; for MIC: Staphylococcus epidermidis
# Method: The compounds were tested in serial two-fold dilutions and the minimum inhibitory concentration (MIC) was determined as the lowest concentration of the compound that inhibited visible growth.
# In particular, gepotidacin was tested against 4 strains of Staphylococcus epidermidis from the collection of isolates at Laboratory Specialists, Inc., Westlake, Ohio.
# Levofloxacin was included as the comparator in the study to determine the effect of urine on the in vitro activity of gepotidacin against Staphylococcus epidermidis. MICs were determined by broth microdilution according CLSI methods.
# The data shown in the table below are results from an in vitro study conducted with the same S. epidermidis isolates described above, to determine the effect of urine on the in vitro activity of gepotidacin and levofloxacin against S. epidermidis. Study strains were tested for MICs according to reference CLSI broth microdilution method using cation-adjusted Mueller Hinton Broth (CAMHB) and with the addition of 25%, 50% and 100% urine (not pH adjusted, pH 6.42) and 100% urine (pH adjusted, 7.31 and 8.07).
# [2] = MIC by CLSI broth microdilution, Example 1 Method 1, gram-negative aerobic organisms; assay type: cell-based; settings: at least one strain of every organism listed; salt of gepotidacin (such as mesylate salt)
# Method: Antimicrobial activity was determined by broth microdilution using the CLSI recommended procedure.
# E. coli [3] = assay: MIC of the isolates used in the murine models; assay type: cell-based, Escherichia coli
# E. coli [4] = assay: Gepotidacin MIC90 for common uUTI pathogens (stated in conclusions); assay type: cell-based; settings: Escherichia coli
# [5] = Phase IIa clinical efficacy (ITT population); assay type: in vivo, human
# Method: This phase IIa single center study evaluated the safety, tolerability, pharmacokinetics, and efficacy of oral gepotidacin 1500 mg BID for 5 days in female subjects with acute cystitis. Clean catch mid-stream urine specimens were obtained for quantitative culture by standard methods. Urine samples were taken from all participants pre-treatment (baseline) and at all post-baseline visits. All urine samples were sent to a central laboratory (PPD Global Clinical Laboratories, Highland Heights, Ky., USA) for Gram stain, quantitative culture, pathogen identification and susceptibility testing. See FIG. 1 for participant disposition and study outline.
# Serial blood and urine PK sampling were performed for the first dose of study treatment on Day 1 and for the time-matched dose on Day 4. Participants took all doses of gepotidacin with food and remained in the clinic to complete a total of 10 doses. Participants were instructed to return for the TOC (Day 10 to 13) and Follow-up (Day 28±3) Visits.
# The mean total clinical symptom score in the ITT Population at Baseline was 7.9 (range: 4 to 12) for 4 categories of acute cystitis symptoms consisting of dysuria, frequency, urgency, and lower abdominal or suprapubic pain (score range for each category was 0 to 3). Of the 22 participants enrolled in this Phase IIa study, 19 (86%) and 18 participants (82%) achieved a clinical response of clinical success at the TOC and Follow-up Visits, respectively. […] Lower abdominal or suprapubic pain at Baseline was the most variable symptom category with half of the participants reporting low scores of 0 (27%) or 1 (23%) and the other half of participants reporting high scores of 2 (41%) or 3 (9%). For the other symptom categories, the majority of participants scored a 2.
# Morganella morganii = assay: MIC, Example 5 Method 1; assay type: cell-based; settings: at least one isolate tested
# Bacteroides caccae = assay: MIC by broth microdilution, drug-resistant isolates; assay type: cell-based; settings: 1 isolate
# Method: (§1) Additional analysis was performed from the results of the study described in Method 1 above, to determine the in vitro activity of gepotidacin against gram-negative and gram-positive anaerobic organisms with resistance to ceftriaxone, clindamycin, imipenem, metronidazole, moxifloxacin and piperacillin/tazobactam.
# Bacteroides uniformis = assay: as above; assay type: cell-based
# Method: as §1
# Bacteroides ovatus = assay: as above; assay type: cell-based
# Method: as §1
# [6] = tested on: Bacteroides thetaiotaomicron; assay: as above; assay type: cell-based
# Method: as §1
# Bacteroides spp = assay: as above; assay type: cell-based
# Method: as §1
# N. gonorrhoeae = assay: MIC by CLSI agar dilution, Example 1 Method 2; assay type: cell-based, Neisseria gonorrhoeae; settings: n = 95
# Method: Antimicrobial activity was determined in a second study by […] using the CLSI recommended procedure in serial two-fold dilutions and the minimum inhibitory concentration (MIC) was determined as the lowest concentration of the compound that inhibited visible growth.
# MICs were determined according to CLSI agar dilution guidelines.
compound,measurement,setting,value
"O=c1ccc2ncc(=O)n3c2n1C[C@H]3CN1CCC(NCc2cc3c(cn2)OCCC3)CC1 [gepotidacin, (2R)-2-({4-[(3,4-dihydro-2H-pyrano[2,3-c]pyridin-6-ylmethyl)amino]-1-piperidinyl}methyl)-1,2-dihydro-3H,8H-2a,5,8a-triazaacenaphthylene-3,8-dione]",MIC range,[1]; 2 isolates of methicillin-resistant S. epidermidis,0.25 to 0.5 µg/mL
same,Mean Dilution Difference,[1]; 25% Urine (pH 7.09) vs CAMHB,−0.75
same,Mean difference,[1]; 25% Urine (pH 7.09) vs CAMHB,−0.17
same,N(%) ± 1 dilution,[1]; 25% Urine (pH 7.09) vs CAMHB,4 (100%)
same,N(%) ± 2 dilution,[1]; 25% Urine (pH 7.09) vs CAMHB,4 (100%)
same,Mean MIC,[1]; 25% Urine (pH 7.09),0.25 µg/mL
same,Mean Dilution Difference,[1]; 50% Urine (6.99) vs CAMHB,−1.01
same,Mean difference,[1]; 50% Urine (6.99) vs CAMHB,−0.21
same,N(%) ± 1 dilution,[1]; 50% Urine (6.99) vs CAMHB,4 (100%)
same,N(%) ± 2 dilution,[1]; 50% Urine (6.99) vs CAMHB,4 (100%)
same,Mean MIC,[1]; 50% Urine (6.99),0.21 µg/mL
same,Mean Dilution Difference,[1]; 100% Urine (pH 6.42) vs CAMHB,−0.26
same,Mean difference,[1]; 100% Urine (pH 6.42) vs CAMHB,−0.07
same,N(%) ± 1 dilution,[1]; 100% Urine (pH 6.42) vs CAMHB,4 (100%)
same,N(%) ± 2 dilution,[1]; 100% Urine (pH 6.42) vs CAMHB,4 (100%)
same,Mean MIC,[1]; 100% Urine (pH 6.42),0.35 µg/mL
same,Mean Dilution Difference,[1]; 100% Urine (pH 7.31) vs CAMHB,0.25
same,Mean difference,[1]; 100% Urine (pH 7.31) vs CAMHB,0.08
same,N(%) ± 1 dilution,[1]; 100% Urine (pH 7.31) vs CAMHB,4 (100%)
same,N(%) ± 2 dilution,[1]; 100% Urine (pH 7.31) vs CAMHB,4 (100%)
same,Mean MIC,[1]; 100% Urine (pH 7.31),0.5 µg/mL
same,Mean Dilution Difference,[1]; 100% Urine (pH 8.07) vs CAMHB,0.00
same,Mean difference,[1]; 100% Urine (pH 8.07) vs CAMHB,0.00
same,N(%) ± 1 dilution,[1]; 100% Urine (pH 8.07) vs CAMHB,4 (100%)
same,N(%) ± 2 dilution,[1]; 100% Urine (pH 8.07) vs CAMHB,4 (100%)
same,Mean MIC,[1]; 100% Urine (pH 8.07),0.42 µg/mL
same,mean dilution differences (range),[1]; 100% urine (conclusion),0 to −0.26
same,Mean MIC,"[1]; CAMHB (ref. method, pH 7.2)",0.42 µg/mL
same,MIC,"[1]; 2 isolates of methicillin-susceptible S. epidermidis, read-out: MIC",0.5 µg/mL
same,MIC,"[1]; at least one strain of methicillin-susceptible or methicillin-resistant S. epidermidis, read-out: MIC",≤ 0.5 µg/mL
same,MIC,"[1]; read-out: MICs, methicillin-susceptible and methicillin-resistant isolates tested (conclusion), heading: MICs",< 0.5 µg/mL
same,mean dilution differences (range),[1]; addition of urine vs CAMHB,0 to −1.01
same,MIC fold greater than the levofloxacin MIC,[1]; each of the methicillin-resistant S. epidermidis,4 fold
same,MIC fold greater than the levofloxacin MIC,[1]; methicillin-susceptible S. epidermidis,2 fold
same,MIC,[2],≤ 8 µg/mL
same,range of MICs,"E. coli [3]; 5 isolates: ALL, 997577, ATCC25922, IR5, NCTC13441",1 to 4 µg/mL
same,Gepotidacin MIC,E. coli [3]; Strain 997577,2 µg/mL
same,Gepotidacin MIC,E. coli [3]; Strain ALL,4 µg/mL
same,Gepotidacin MIC,E. coli [3]; Strain ATCC25922,1 µg/mL
same,Gepotidacin MIC,E. coli [3]; Strain IR5,4 µg/mL
same,Gepotidacin MIC,E. coli [3]; Strain NCTC13441,2 µg/mL
same,MIC90,E. coli [4],4 µg/mL
same,participants with clinical response of clinical success,"[5]; TOC Visit, 22 participants",19 (86%)
same,participants with symptom resolution,[5]; at Follow-up,20 participants
same,participants with symptom resolution (clinical signs and symptom score of 0),[5]; at TOC,19 participants
same,time to significant improvement of clinical symptoms (all subjects),"[5]; dysuria, frequency, urgency, lower abdominal pain",24 to 48 h
same,MIC,Morganella morganii,4 µg/mL
same,Gepotidacin MIC range,Bacteroides caccae; ceftriaxone R,0.25 µg/mL
same,Gepotidacin MIC range,Bacteroides caccae; clindamycin R,4 µg/mL
same,Gepotidacin MIC range,Bacteroides caccae; moxifloxacin R,0.25 µg/mL
same,Gepotidacin MIC range,"Bacteroides uniformis; ceftriaxone R, 2 isolates",0.5 to 2 µg/mL
same,Gepotidacin MIC range,"Bacteroides uniformis; moxifloxacin R, 1 isolate",0.5 µg/mL
same,Gepotidacin MIC range,"Bacteroides ovatus; ceftriaxone R, 5 isolates",0.5 to 2 µg/mL
same,Gepotidacin MIC range,"Bacteroides ovatus; clindamycin R, 5 isolates",0.25 to 4 µg/mL
same,Gepotidacin MIC range,"Bacteroides ovatus; moxifloxacin R, 3 isolates",0.5 to 4 µg/mL
same,Gepotidacin MIC range,"[6]; ceftriaxone R, 20 isolates",0.5 to 8 µg/mL
same,Gepotidacin MIC range,"[6]; clindamycin R, 18 isolates",0.5 to 8 µg/mL
same,Gepotidacin MIC range,"[6]; moxifloxacin R, 7 isolates",0.5 to 8 µg/mL
same,Gepotidacin MIC range,"Bacteroides spp; ceftriaxone R, 61 isolates",≤0.015 to 6 µg/mL
same,Gepotidacin MIC range,"Bacteroides spp; clindamycin R, 51 isolates",0.06 to 16 µg/mL
same,Gepotidacin MIC range,"Bacteroides spp; moxifloxacin R, 35 isolates",0.25 to 8 µg/mL
same,MIC50,N. gonorrhoeae; Neisseria gonorrhoeae,0.25 µg/mL
same,MIC90,N. gonorrhoeae; Neisseria gonorrhoeae,1 µg/mL
same,Number of Isolates at Gepotidacin MIC 0.5 mg/L,N. gonorrhoeae,6
same,Number of Isolates at Gepotidacin MIC 1 mg/L,N. gonorrhoeae,6
same,Number of Isolates at Gepotidacin MIC 2 mg/L,N. gonorrhoeae,4
same,Number of Isolates at Gepotidacin MIC ≤0.25 mg/L,N. gonorrhoeae,79
